# Experimental data as given in patent publication US9193731B2, “Antimicrobial compounds and methods of making and using the same” (Melinta Therapeutics, Inc., priority 2009, dated 2015).
# Tested on: Escherichia coli strain ATCC25922
# Experiment: standard microdilution assay to determine minimum inhibitory concentrations (MICs)
# Type: cell-based
# Conditions: Escherichia coli strain ATCC25922, microdilution
# Procedure, shortened: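 E. coli strain ATCC25922 tested per CLSI microdilution methodology (about 100 microliters per well) to find minimum inhibitory concentrations. Activity scored categorically at a 16 micrograms/ml threshold.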
row,SMILES,E. coli ATCC25922 MIC
1,N=C(N)NCCCNCc1ccc(-n2cc3cc(C4CCCN(C(=O)CCCN)C4)[nH]c3nc2=O)cc1 (stereo not shown) [Compound 1406],+ (a “+” indicates that the compound has an MIC value of 16 micrograms/ml or less)
2,N=C(N)NCCCNC(=O)c1ccc(-n2cc3cc(CCNC4CNC4)[nH]c3nc2=O)cc1 [Compound 1408],− (a “−” indicates that the compound has an MIC value greater than 16 micrograms/ml)
3,CC(C)(N)CCOc1cccc(-c2cc3cn(-c4ccc(CNCCCNC(=N)N)cc4)c(=O)nc3[nH]2)c1 [Compound 1410],+ (a “+” indicates that the compound has an MIC value of 16 micrograms/ml or less)
4,N=C(N)NCCCNCc1ccc(-n2cc3cc(-c4ccc(C(=O)NC5CNC5)cc4)[nH]c3nc2=O)cc1 [Compound 1412],+ (a “+” indicates that the compound has an MIC value of 16 micrograms/ml or less)
5,N=C(N)NCCCNCc1ccc(-n2cc3cc(-c4cccc(OCC5(CN)CC5)c4)[nH]c3nc2=O)cc1 [Compound 1413],+ (a “+” indicates that the compound has an MIC value of 16 micrograms/ml or less)
6,CC(CCN)Oc1cccc(-c2cc3cn(-c4ccc(CNCCCNC(=N)N)cc4)c(=O)nc3[nH]2)c1 (stereo not shown) [Compound 1414],+ (a “+” indicates that the compound has an MIC value of 16 micrograms/ml or less)
7,N=C(N)NCCC(NCc1ccc(-n2cc3cc(-c4ccc(S(=O)(=O)NC5CNC5)cc4)[nH]c3nc2=O)cc1)C(F)(F)F (stereo not shown) [Compound 1415],+ (a “+” indicates that the compound has an MIC value of 16 micrograms/ml or less)
8,N=C(N)NCC(O)CNCc1ccc(-n2cc3cc(-c4ccc(S(=O)(=O)NC5CNC5)cc4)[nH]c3nc2=O)cc1 (stereo not shown) [Compound 1416],+ (a “+” indicates that the compound has an MIC value of 16 micrograms/ml or less)
9,N=C(N)NCC(O)CNCc1ccc(-n2cc3cc(-c4ccc(S(=O)(=O)NC5CN(C(=N)N)C5)cc4)[nH]c3nc2=O)cc1 (stereo not shown) [Compound 1417],+ (a “+” indicates that the compound has an MIC value of 16 micrograms/ml or less)
10,N=C(N)NCCCNCc1ccc(-n2cc3cc(-c4cccc(OCC5CNC5)c4)[nH]c3nc2=O)cc1 [Compound 1418],+ (a “+” indicates that the compound has an MIC value of 16 micrograms/ml or less)
11,N=C(N)NCCCNCc1ccc(-n2cc3cc(C4CCCN(CC(O)CN)C4)[nH]c3nc2=O)cc1 (stereo not shown) [Compound 1422],+ (a “+” indicates that the compound has an MIC value of 16 micrograms/ml or less)
12,N=C(N)NCCCNCc1ccc(-n2cc3cc(-c4cccc(OC[C@@H]5CCNC5)c4)[nH]c3nc2=O)cc1 [Compound 1423],+ (a “+” indicates that the compound has an MIC value of 16 micrograms/ml or less)
13,N=C(N)NCCCNCc1ccc(-n2cc3cc(-c4ccc(C(NC5CNC5)C(F)(F)F)cc4)[nH]c3nc2=O)cc1 (stereo not shown) [Compound 1431],+ (a “+” indicates that the compound has an MIC value of 16 micrograms/ml or less)
14,N=C(N)NCCCNCc1ccc(-n2cc3cc(-c4ccc(C(NC5CN(C(=N)N)C5)C(F)(F)F)cc4)[nH]c3nc2=O)cc1 (stereo not shown) [Compound 1432],+ (a “+” indicates that the compound has an MIC value of 16 micrograms/ml or less)
15,N=C(N)NCCCNC(=O)c1ccc(-n2cc3cc(-c4cccc(CCCCN)c4)[nH]c3nc2=O)cc1 [Compound 1433],+ (a “+” indicates that the compound has an MIC value of 16 micrograms/ml or less)
16,N=C(N)NCCCNCc1ccc(-n2cc3cc(-c4cccc(OCC5(CN)CCC5)c4)[nH]c3nc2=O)cc1 [Compound 1434],+ (a “+” indicates that the compound has an MIC value of 16 micrograms/ml or less)
17,N=C(N)NCCCNCc1ccc(-n2cc3cc(C4CCN(CCCCN)C4)[nH]c3nc2=O)cc1 (stereo not shown) [Compound 1437],+ (a “+” indicates that the compound has an MIC value of 16 micrograms/ml or less)
18,N=C(N)NCCCNCc1ccc(-n2cc3cc(-c4cccc(OC[C@H]5CCNC5)c4)[nH]c3nc2=O)cc1 [Compound 1438],+ (a “+” indicates that the compound has an MIC value of 16 micrograms/ml or less)
19,CC(N)CCOc1cccc(-c2cc3cn(-c4ccc(CNCCCNC(=N)N)cc4)c(=O)nc3[nH]2)c1 (stereo not shown) [Compound 1439],+ (a “+” indicates that the compound has an MIC value of 16 micrograms/ml or less)
20,CC(N)CCOc1cccc(-c2cc3cn(-c4ccc(CNCCCNC(=N)N)cc4)c(=O)nc3[nH]2)c1 (stereo not shown) [Compound 1440],+ (a “+” indicates that the compound has an MIC value of 16 micrograms/ml or less)
21,N=C(N)NCCCNCc1ccc(-n2cc3cc(-c4cccc(CCCN)c4)[nH]c3nc2=O)cc1 [Compound 1446],+ (a “+” indicates that the compound has an MIC value of 16 micrograms/ml or less)

row,SMILES,E. coli ATCC25922 MIC
1,N=C(N)NCCCNCc1ccc(-n2cc3cc(-c4cccc(OCCC5(N)CCCC5)c4)[nH]c3nc2=O)cc1 [Compound 1447],+ (a “+” indicates that the compound has an MIC value of 16 micrograms/ml or less)
2,N=C(N)NCCCNCc1ccc(-n2cc3cc(C4CCN(CCCN)C4)[nH]c3nc2=O)cc1 (stereo not shown) [Compound 1448],+ (a “+” indicates that the compound has an MIC value of 16 micrograms/ml or less)
3,N=C(N)NCCCNCc1ccc(-n2cc3cc(-c4cccc(SCCN)c4)[nH]c3nc2=O)cc1 [Compound 1451],+ (a “+” indicates that the compound has an MIC value of 16 micrograms/ml or less)
4,N=C(N)NCCCNCc1ccc(-n2cc3cc(-c4cccc(OCC5CNCCO5)c4)[nH]c3nc2=O)cc1 (stereo not shown) [Compound 1452],+ (a “+” indicates that the compound has an MIC value of 16 micrograms/ml or less)
5,COC(CN)COc1cccc(-c2cc3cn(-c4ccc(CNCCCNC(=N)N)cc4)c(=O)nc3[nH]2)c1 (stereo not shown) [Compound 1453],+ (a “+” indicates that the compound has an MIC value of 16 micrograms/ml or less)
6,N=C(N)NCCCNCc1ccc(-n2cc3cc(-c4cccc(OCC(CN)OCC(F)(F)F)c4)[nH]c3nc2=O)cc1 (stereo not shown) [Compound 1455],+ (a “+” indicates that the compound has an MIC value of 16 micrograms/ml or less)
7,N=C(N)NCCCNCc1ccc(-n2cc3cc(C4CCN(CC(O)CN)C4)[nH]c3nc2=O)cc1 (stereo not shown) [Compound 1456],+ (a “+” indicates that the compound has an MIC value of 16 micrograms/ml or less)
8,N=C(N)NCCCNCc1ccc(-n2cc3cc(C4CCN(CC5CNC(=O)O5)C4)[nH]c3nc2=O)cc1 (stereo not shown) [Compound 1457],− (a “−” indicates that the compound has an MIC value greater than 16 micrograms/ml)
9,CCOC(CN)COc1cccc(-c2cc3cn(-c4ccc(CNCCCNC(=N)N)cc4)c(=O)nc3[nH]2)c1 (stereo not shown) [Compound 1458],+ (a “+” indicates that the compound has an MIC value of 16 micrograms/ml or less)
10,N=C(N)NCCCNCc1ccc(-n2cc3cc(-c4ccc(S(=O)(=O)N5CC(N)C5)cc4)[nH]c3nc2=O)cc1 [Compound 1459],+ (a “+” indicates that the compound has an MIC value of 16 micrograms/ml or less)
11,N=C(N)NCCCNCc1ccc(-n2cc3cc(-c4cccc(S(=O)(=O)CCCN)c4)[nH]c3nc2=O)cc1 [Compound 1460],+ (a “+” indicates that the compound has an MIC value of 16 micrograms/ml or less)
12,N=C(N)NCCCNCc1ccc(-n2cc3cc(-c4ccc(C(NC5CNC5)C(F)F)cc4)[nH]c3nc2=O)cc1 (stereo not shown) [Compound 1462],+ (a “+” indicates that the compound has an MIC value of 16 micrograms/ml or less)
13,N=C(N)NCCCNCc1ccc(-n2cc3cc(-c4cc(OCC(F)CN)cc(OC(F)(F)F)c4)[nH]c3nc2=O)cc1 (stereo not shown) [Compound 1463],+ (a “+” indicates that the compound has an MIC value of 16 micrograms/ml or less)
14,N=C(N)NCCCNCc1ccc(-n2cc3cc(C4CCN(CC(F)CN)C4)[nH]c3nc2=O)cc1 (stereo not shown) [Compound 2000a],+ (a “+” indicates that the compound has an MIC value of 16 micrograms/ml or less)
15,N=C(N)NCCCNCc1ccc(-n2cc3cc(-c4cc(OCC(F)CN)cc(-c5cccnc5)c4)[nH]c3nc2=O)cc1 (stereo not shown) [Compound 2001a],− (a “−” indicates that the compound has an MIC value greater than 16 micrograms/ml)
16,CS(=O)(=O)c1ccc(-c2cc(OCC(F)CN)cc(-c3cc4cn(-c5ccc(CNCCCNC(=N)N)cc5)c(=O)nc4[nH]3)c2)cc1 (stereo not shown) [Compound 2002a],− (a “−” indicates that the compound has an MIC value greater than 16 micrograms/ml)
17,N=C(N)NCCCNCc1ccc(-n2cc3cc(C4CCCN(Cc5cnc[nH]5)C4)[nH]c3nc2=O)cc1 (stereo not shown) [Compound 2003a],− (a “−” indicates that the compound has an MIC value greater than 16 micrograms/ml)
18,N=C(N)NCCCNCc1ccc(-n2cc3cc(-c4cc(CCO)cc(OCC(F)CN)c4)[nH]c3nc2=O)cc1 (stereo not shown) [Compound 2004a],− (a “−” indicates that the compound has an MIC value greater than 16 micrograms/ml)
19,N=C(N)NCCCNCc1ccc(-n2cc3cc(-c4cc(OCC(F)CN)cc(N5CCNCC5)c4)[nH]c3nc2=O)cc1 (stereo not shown) [Compound 2005a],+ (a “+” indicates that the compound has an MIC value of 16 micrograms/ml or less)
20,N=C(N)NCCCNCc1ccc(-n2cc3cc(-c4ccc(C(NC5CN(C(=N)N)C5)C(F)F)cc4)[nH]c3nc2=O)cc1 (stereo not shown) [Compound 2006a],+ (a “+” indicates that the compound has an MIC value of 16 micrograms/ml or less)
21,N=C(N)NCCCNCc1ccc(-n2cc3cc(-c4cccc(S(=O)(=O)NCCN)c4)[nH]c3nc2=O)cc1 [Compound 2007a],+ (a “+” indicates that the compound has an MIC value of 16 micrograms/ml or less)

# Same assay, conditions: Escherichia coli, ATCC25922, Escherichia coli strain ATCC25922, microdilution; read-out: E. coli ATCC25922 MIC
row,SMILES,MIC [µg/mL]
1,CO[C@H](CN)COc1cccc(-c2cc3cn(-c4ccc(CN)cc4)c(=O)nc3[nH]2)c1 [Compound 1428],> 16
2,NCc1ccc(-n2cc3cc(-c4cccc(OCC(F)(F)CN)c4)[nH]c3nc2=O)cc1 [Compound 1436],> 16
3,NCc1ccc(-n2cc3cc(-c4cccc(OC[C@H](F)CN)c4)[nH]c3nc2=O)cc1 [Compound 1443],> 16
4,CO[C@@H](CN)COc1cccc(-c2cc3cn(-c4ccc(CN)cc4)c(=O)nc3[nH]2)c1 [Compound 1444],> 16
